Measurements from ChEMBL document CHEMBL3994620, “Synthesis and antioxidant activity of a procyanidin B3 analogue” (Bioorg Med Chem Lett, 2017).

Test: Antioxidant activity assessed as second order rate constant for galvinoxyl radical scavenging activity by UV-vis spectrophotometry
Format: functional

With `CC1(C)O[C@H]2Cc3c(O)cc(O)c([C@@H]4c5c(O)cc(O)cc5O[C@H](c5ccc(O)c(O)c5)[C@H]4O)c3O[C@@H]2c2cc(O)c(O)cc21` as the compound, how does the K read?
Its K is 1.89 ×10² /M/s.

For `Oc1cc(O)c2c(c1)O[C@H](c1ccc(O)c(O)c1)[C@@H](O)C2`, which K is on record?
The K was 26 M⁻¹ s⁻¹.

With `Oc1cc(O)c2c(c1)O[C@H](c1ccc(O)c(O)c1)[C@@H](O)[C@@H]2c1c(O)cc(O)c2c1O[C@H](c1ccc(O)c(O)c1)[C@@H](O)C2` as the compound, how does the K read?
The K was 1 ×10² /M/s.
